Reference: US20250170090A1, “METHOD FOR PREVENTING OR TREATING DISEASE OR DISORDER ASSOCIATED WITH ANTINEOPLASTIC AGENT” (ONQUALITY PHARMACEUTICALS CHINA LTD., priority 2022, published 2025)
Where two headings read alike, the source gives them in different places.

How the values were obtained:
[1] = tested on: chemotherapy-induced hand-foot syndrome; assay: Prevention of chemotherapy-induced hand-foot syndrome in rat models (Table 5); assay type: in vivo, SD rats
Description: Rat animal model was constructed. After several days, the rats develop hand-foot syndrome in their paws. After one week of acclimatization (about 200 g), the SD rats are divided into groups of 10 rats each, followed by gavage administration experiment. The chemotherapy drugs were dissolved, and each rat was given a gavage dose of 1 mL/100 g. After gavage, the rats were fixed with a fixed cylinder. NO-NSAID ointment was applied to the paws of the rats in the medication group, and blank ointment was applied to the paws of the rats in the blank group (as blank control). […] Table 5 lists the animal experimental combinations of chemotherapy drugs and NO-NSAID ointment, as well as the corresponding experimental results (where the value in the control rate column=the incidence rate of hand-foot syndrome in the blank group−the incidence rate of hand-foot syndrome in the treatment group).

[2] = tested on: HUVEC cells; assay: CCK-8 cell viability: alleviation of proliferative toxicity of anti-tumor agents on HUVEC cells (Tables 7-1, 7-2); assay type: cell-based; settings: for activation at 100 µM: Homo sapiens, 24 h, percentage increase in viable cells vs anti-tumor agent alone, read-out: Response rate % (average)
In short: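 HUVEC cells were treated with anti-tumor agent (DMSO solvent) alone or combined with NO-NSAID (ethanol or water solvent), and NO-NSAID solvent controls were used for correction. After 24-48 h of culture, viability was read by CCK-8 to derive proliferative toxicity and how much NO-NSAID mitigated it.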

[3] = Capecitabine 4000 mg/kg once a day, ointment 2% wt, Days 40
[4] = Afatinib (10 μM), NO-NSAID 100 μM
[5] = Cabozantinib (5 μM), NO-NSAID 100 μM
[6] = Dabrafenib (10 μM), NO-NSAID 100 μM
[7] = Everolimus (5 μM), NO-NSAID 100 μM
[8] = Anlotinib (5 μM), NO-NSAID 100 μM
[9] = Apatinib (10 μM), NO-NSAID 100 μM
[10] = Axitinib (10 μM), NO-NSAID 100 μM
[11] = Dacomitinib (5 μM), NO-NSAID 100 μM
[12] = Encorafenib (5 μM), NO-NSAID 100 μM
[13] = Erdafitinib (10 μM), NO-NSAID 100 μM
[14] = Famitinib (5 μM), NO-NSAID 100 μM
[15] = Fruquintinib (10 μM), NO-NSAID 100 μM
[16] = Gefitinib (10 μM), NO-NSAID 100 μM
[17] = Infigratinib (15 μM), NO-NSAID 100 μM
[18] = Lapatinib (5 μM), NO-NSAID 100 μM
[19] = Lenvatinib (10 μM), NO-NSAID 100 μM
[20] = Olmutinib (10 μM), NO-NSAID 100 μM
[21] = Regorafenib (5 μM), NO-NSAID 100 μM
[22] = Selumetinib (5 μM), NO-NSAID 100 μM
[23] = Sorafenib (5 μM), NO-NSAID 100 μM
[24] = Sunitinib (5 μM), NO-NSAID 100 μM
[25] = Vemurafenib (5 μM), NO-NSAID 100 μM

Molecule `CC(=O)Oc1ccccc1C(=O)Oc1cccc(CO[N+](=O)[O-])c1` [Compound A2] has a Control rate ([1]; Acelarin 130 mg/kg twice a week, ointment 1% wt, Days 30) of 28.57%, a Control rate [1, 3] of 22.22% and a Control rate ([1]; Capecitabine 4000 mg/kg once a day, ointment 5% wt, Days 40) of 28.57%. The Control rate ([1]; Capecitabine 4000 mg/kg once a day, ointment 10% wt, Days 40) was 33.33%, the Control rate ([1]; Cytarabine 120 mg/kg twice a day, ointment 2% wt, Days 30) was 14.29% and the Control rate ([1]; Cytarabine 120 mg/kg twice a day, ointment 5% wt, Days 30) was 42.86%. The “NO-NSAID response rate % (average)” value ([2]; Afatinib (10 μM), NO-NSAID 0.1 μM) was 15%, the “NO-NSAID response rate % (average)” value ([2]; Afatinib (10 μM), NO-NSAID 1 μM) was 17% and the “NO-NSAID response rate % (average)” value [2, 4] was 46%. The “NO-NSAID response rate % (average)” value ([2]; Afatinib (10 μM), NO-NSAID 500 μM) was 38%, the “NO-NSAID response rate % (average)” value ([2]; Cabozantinib (5 μM), NO-NSAID 0.1 μM) was 3% and the “NO-NSAID response rate % (average)” value ([2]; Cabozantinib (5 μM), NO-NSAID 1 μM) was 4%. The “NO-NSAID response rate % (average)” value [2, 5] was 10%, the “NO-NSAID response rate % (average)” value ([2]; Cabozantinib (5 μM), NO-NSAID 500 μM) was 12% and the “NO-NSAID response rate % (average)” value ([2]; Dabrafenib (10 μM), NO-NSAID 0.1 μM) was 23%. The “NO-NSAID response rate % (average)” value ([2]; Dabrafenib (10 μM), NO-NSAID 1 μM) was 36%, the “NO-NSAID response rate % (average)” value [2, 6] was 49% and the “NO-NSAID response rate % (average)” value ([2]; Dabrafenib (10 μM), NO-NSAID 500 μM) was 30%. The “NO-NSAID response rate % (average)” value ([2]; Everolimus (5 μM), NO-NSAID 0.1 μM) was −11%, the “NO-NSAID response rate % (average)” value ([2]; Everolimus (5 μM), NO-NSAID 1 μM) was −6% and the “NO-NSAID response rate % (average)” value [2, 7] was 33%. For the same molecule, the “NO-NSAID response rate % (average)” value ([2]; Everolimus (5 μM), NO-NSAID 500 μM) was −9%, the activation at 100 µM [2, 4] was 46% and the activation at 100 µM [2, 8] was 78%. It also gave an activation at 100 µM [2, 9] of 56%, an activation at 100 µM [2, 10] of 77% and an activation at 100 µM [2, 5] of 10%. For the same molecule, the activation at 100 µM [2, 6] was 49%, the activation at 100 µM [2, 11] was 12% and the activation at 100 µM [2, 12] was 76%. The activation at 100 µM [2, 13] was 49%, the activation at 100 µM [2, 7] was 33% and the activation at 100 µM [2, 14] was 31%. It also gave an activation at 100 µM [2, 15] of 41%, an activation at 100 µM [2, 16] of 76% and an activation at 100 µM [2, 17] of 73%. It also gave an activation at 100 µM [2, 18] of 16%, an activation at 100 µM [2, 19] of 34% and an activation at 100 µM [2, 20] of 33%. For the same molecule, the activation at 100 µM [2, 21] was 50%, the activation at 100 µM [2, 22] was 83% and the activation at 100 µM [2, 23] was 56%. The activation at 100 µM [2, 24] was 65%, the activation at 100 µM [2, 25] was 54% and the “NO-NSAID response rate % (average)” value ([2]; Infigratinib (15 μM), NO-NSAID 0.1 μM) was 30%. For the same molecule, the “NO-NSAID response rate % (average)” value ([2]; Infigratinib (15 μM), NO-NSAID 1 μM) was 18%, the “NO-NSAID response rate % (average)” value [2, 17] was 73% and the “NO-NSAID response rate % (average)” value ([2]; Infigratinib (15 μM), NO-NSAID 500 μM) was 17%. For the same molecule, the “NO-NSAID response rate % (average)” value ([2]; Lapatinib (5 μM), NO-NSAID 0.1 μM) was 14%, the “NO-NSAID response rate % (average)” value ([2]; Lapatinib (5 μM), NO-NSAID 1 μM) was 32% and the “NO-NSAID response rate % (average)” value [2, 18] was 16%. For the same molecule, the “NO-NSAID response rate % (average)” value ([2]; Lapatinib (5 μM), NO-NSAID 500 μM) was 20%, the “NO-NSAID response rate % (average)” value ([2]; Lenvatinib (10 μM), NO-NSAID 0.1 μM) was 25% and the “NO-NSAID response rate % (average)” value ([2]; Lenvatinib (10 μM), NO-NSAID 1 μM) was 24%. The “NO-NSAID response rate % (average)” value [2, 19] was 34%, the “NO-NSAID response rate % (average)” value ([2]; Lenvatinib (10 μM), NO-NSAID 500 μM) was 31% and the “NO-NSAID response rate % (average)” value ([2]; Olmutinib (10 μM), NO-NSAID 0.1 μM) was 24%. For the same molecule, the “NO-NSAID response rate % (average)” value ([2]; Olmutinib (10 μM), NO-NSAID 1 μM) was 24%, the “NO-NSAID response rate % (average)” value [2, 20] was 33% and the “NO-NSAID response rate % (average)” value ([2]; Olmutinib (10 μM), NO-NSAID 500 μM) was 23%. The “NO-NSAID response rate % (average)” value ([2]; Regorafenib (5 μM), NO-NSAID 0.1 μM) was 32%, the “NO-NSAID response rate % (average)” value ([2]; Regorafenib (5 μM), NO-NSAID 1 μM) was 30% and the “NO-NSAID response rate % (average)” value [2, 21] was 50%. The “NO-NSAID response rate % (average)” value ([2]; Regorafenib (5 μM), NO-NSAID 500 μM) was 36%, the “NO-NSAID response rate % (average)” value ([2]; Selumetinib (5 μM), NO-NSAID 0.1 μM) was 34% and the “NO-NSAID response rate % (average)” value ([2]; Selumetinib (5 μM), NO-NSAID 1 μM) was 48%. For the same molecule, the “NO-NSAID response rate % (average)” value [2, 22] was 83%, the “NO-NSAID response rate % (average)” value ([2]; Selumetinib (5 μM), NO-NSAID 500 μM) was 30% and the “NO-NSAID response rate % (average)” value ([2]; Sorafenib (5 μM), NO-NSAID 0.1 μM) was 5%. The “NO-NSAID response rate % (average)” value ([2]; Sorafenib (5 μM), NO-NSAID 1 μM) was 20%, the “NO-NSAID response rate % (average)” value [2, 23] was 56% and the “NO-NSAID response rate % (average)” value ([2]; Sorafenib (5 μM), NO-NSAID 500 μM) was 17%. The “NO-NSAID response rate % (average)” value ([2]; Sunitinib (5 μM), NO-NSAID 0.1 μM) was 13%, the “NO-NSAID response rate % (average)” value ([2]; Sunitinib (5 μM), NO-NSAID 1 μM) was 7% and the “NO-NSAID response rate % (average)” value [2, 24] was 65%. For the same molecule, the “NO-NSAID response rate % (average)” value ([2]; Sunitinib (5 μM), NO-NSAID 500 μM) was 2%.
`CC(=O)Oc1ccccc1C(=O)OCc1no[n+]([O-])c1C(N)=O` [Compound A6] showed a Control rate [1, 3] of 42.86%, an activation at 100 µM [2, 4] of 45% and an activation at 100 µM [2, 8] of 50%. It also gave an activation at 100 µM [2, 9] of 41%, an activation at 100 µM [2, 10] of 22% and an activation at 100 µM [2, 5] of 0%. For the same molecule, the activation at 100 µM [2, 6] was 21%, the activation at 100 µM [2, 11] was 75% and the activation at 100 µM [2, 12] was 51%. For the same molecule, the activation at 100 µM [2, 13] was 56%, the activation at 100 µM [2, 7] was 52% and the activation at 100 µM [2, 14] was 66%. It also gave an activation at 100 µM [2, 15] of 53%, an activation at 100 µM [2, 16] of 77% and an activation at 100 µM [2, 17] of 32%. For the same molecule, the activation at 100 µM [2, 18] was 41%, the activation at 100 µM [2, 19] was 23% and the activation at 100 µM [2, 20] was 28%. It also gave an activation at 100 µM [2, 21] of 66%, an activation at 100 µM [2, 22] of 64% and an activation at 100 µM [2, 23] of 24%. It also gave an activation at 100 µM [2, 24] of 58% and an activation at 100 µM [2, 25] of 42%.
